The record followed here is patent publication US20220048953A1, “CELL-PENETRATING PEPTIDE” (KANEKA CORPORATION, priority 2018, published 2022).

This experiment concerns HeLa cell (Human cervix adenocarcinoma cell). Briefly: Cell membrane penetrating performance evaluation (flow cytometry of fluorescein-labelled peptide conjugates). In kind it is cell-based. As to conditions: 2 μM peptide conjugate, 37° C., 2 hours, ratio to Comparative example 2 = (Fn−F1)/(F2−F1), mode values, flow cytometer. Here is the method: Test example 1: Cell Membrane Penetrating Performance Evaluation
HeLa cell (Human cervix adenocarcinoma cell) was cultivated in a culture fluid containing 2 μM of the peptide conjugate of Examples 1 to 9 or Comparative examples 1 to 6 at 37° C. for 2 hours. Then, the cell was collected and stained with a propidium iodide solution to measure a fluorescence intensity using a flow cytometer, and a fluorescence intensity ratio to Comparative example 2 was calculated in accordance with the following formula.
Fluorescence intensity ratio=(Fn−F1)/(F2−F1)
Fn: Fluorescence intensity mode value of tested compound
F1: Fluorescence intensity mode value of tested compound of Comparative example 1
F2: Fluorescence intensity mode value of tested compound of Comparative example 2

Where no end group is shown, it is not given here. [ ]: non-standard residue; d: D form. Aib = CC(C)(N)C(=O)O; Ahx = NCCCCCC(=O)O

Take “F-Ahx-(cargo peptide)-(Arg)9-(Gly)3-(Leu-Leu-Aib)-NH2 (F[Ahx]CGGSGGSCRRRRRRRRRGGGLL[Aib]-NH2; not fully specified (bridges); cysteine pairing not given here) [Example 8]”: the Fluorescence intensity ratio was 2.74.

With “F-Ahx-(cargo peptide)-(Leu-Leu-Ala)-(Gly)3-(Arg)9-NH2 (F[Ahx]CGGSGGSCLLAGGGRRRRRRRRR-NH2; not fully specified (bridges); cysteine pairing not given here) [Example 9]”, the Fluorescence intensity ratio worked out at 3.34.
